# Assay results: patent US12673924B2, “Valiolamine derivatives as glucosidase inhibitors” (Emergent Product Development Gaithersburg Inc., priority 2021, dated 2026)
# Key:
# rat maltase = test: Intestinal alpha-glucosidase assay, maltose substrate; assay type: biochemical; details: alpha-glucosidase from intestinal rat powder
# Protocol: Intestinal alpha-glucosidases (rat maltase and sucrase): Intestinal alpha-glucosidases act upon 1,4-alpha-glucoside bonds, breaking down disaccharides to glucose. To perform this assay, partially purified alpha-glucosidase from intestinal rat powder was incubated for 60 minutes at 37° C. with multiple dilutions of test compounds. Maltose or Sucrose respectively was then introduced as substrate to the mixture and incubated for 30 minutes at 37° C. The reaction was stopped by a 5-minute incubation at 90° C. and the resultant glucose production is detected using Sigma's Glucose GO Kit. Percent inhibition was then plotted as a function of concentration for each test compound. The IC50 was determined using a 4-PL curve fit and serves as the measure of relative inhibition of each test compound (see Table 4). Table 4 summarizes the results of IC50s for each molecule against each tested glucosidase enzyme.
# [1] = molecular target: T1, recombinant alpha-glucosidase II (murine full-length glucosidase II) (Mus musculus, UniProt Q8BHN3); test: Alpha-glucosidase II assay; assay type: biochemical; details: 4-methylumbelliferyl-alpha-D-pyranoside substrate, read-out: aGlc2 IC50
# T1 construct: made in house; host or cells: HEK-293T cells co-transduced with two BacMam viruses (75% alpha, 25% beta); secreted into the culture supernatant
# T1 sequence (Q8BHN3 with tags, fused parts or gaps isoform Q8BHN3-2): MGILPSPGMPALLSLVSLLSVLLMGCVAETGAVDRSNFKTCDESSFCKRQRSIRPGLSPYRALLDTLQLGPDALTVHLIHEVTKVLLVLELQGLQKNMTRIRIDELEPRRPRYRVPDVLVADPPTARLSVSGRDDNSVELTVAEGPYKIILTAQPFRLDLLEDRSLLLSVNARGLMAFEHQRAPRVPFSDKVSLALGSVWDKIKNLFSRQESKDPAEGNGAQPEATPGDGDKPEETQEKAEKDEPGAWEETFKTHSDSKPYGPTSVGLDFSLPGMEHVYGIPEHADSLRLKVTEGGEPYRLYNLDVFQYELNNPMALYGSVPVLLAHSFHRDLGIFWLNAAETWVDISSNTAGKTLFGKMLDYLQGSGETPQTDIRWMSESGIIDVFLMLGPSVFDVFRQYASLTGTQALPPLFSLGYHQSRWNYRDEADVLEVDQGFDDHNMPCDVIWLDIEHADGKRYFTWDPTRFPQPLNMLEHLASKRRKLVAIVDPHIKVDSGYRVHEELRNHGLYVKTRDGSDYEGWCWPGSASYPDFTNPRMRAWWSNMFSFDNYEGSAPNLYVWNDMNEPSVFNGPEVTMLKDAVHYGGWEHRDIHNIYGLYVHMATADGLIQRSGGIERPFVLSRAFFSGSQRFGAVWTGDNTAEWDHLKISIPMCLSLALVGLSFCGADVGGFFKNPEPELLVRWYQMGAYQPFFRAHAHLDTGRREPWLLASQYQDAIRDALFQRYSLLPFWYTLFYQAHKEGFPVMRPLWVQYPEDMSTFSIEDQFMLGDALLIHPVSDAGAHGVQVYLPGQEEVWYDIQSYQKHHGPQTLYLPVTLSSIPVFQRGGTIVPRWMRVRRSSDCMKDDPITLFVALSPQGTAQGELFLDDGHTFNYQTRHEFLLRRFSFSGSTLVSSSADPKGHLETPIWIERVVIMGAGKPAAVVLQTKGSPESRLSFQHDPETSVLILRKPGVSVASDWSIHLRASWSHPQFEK
# T1 sequence (O08795 with tags, fused parts or gaps partner limits assumed): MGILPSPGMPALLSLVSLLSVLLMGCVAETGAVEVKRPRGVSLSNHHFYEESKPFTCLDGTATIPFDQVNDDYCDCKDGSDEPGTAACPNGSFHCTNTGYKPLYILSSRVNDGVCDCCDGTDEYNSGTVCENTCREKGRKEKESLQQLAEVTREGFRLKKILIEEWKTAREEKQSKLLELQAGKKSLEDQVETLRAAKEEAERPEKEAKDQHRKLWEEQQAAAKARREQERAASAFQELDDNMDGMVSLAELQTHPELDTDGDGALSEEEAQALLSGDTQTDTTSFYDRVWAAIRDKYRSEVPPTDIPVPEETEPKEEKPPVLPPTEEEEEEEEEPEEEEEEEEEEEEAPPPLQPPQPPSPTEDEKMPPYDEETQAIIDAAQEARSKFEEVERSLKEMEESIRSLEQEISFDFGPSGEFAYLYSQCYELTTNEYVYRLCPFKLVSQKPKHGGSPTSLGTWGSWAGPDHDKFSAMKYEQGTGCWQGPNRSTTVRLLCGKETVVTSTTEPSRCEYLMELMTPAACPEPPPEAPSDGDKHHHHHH
# Text: Preparation of Murine Full-length Glucosidase II: Glucosidase is a heterodimeric protein consisting of alpha and beta subunits. […] A single construct was designed for each of the subunits for gene synthesis and cloning into Gateway entry vectors. The alpha subunit was appended with a Strep-affinity tag and the beta subunit was appended with a 6-His affinity tag. The entry vectors were cloned into Kemp Protein's BacMam Destination vector and the vectors were transformed into chemically competent DH10Bac E. coli cells to produce recombinant glucosidase II bacmids. Bacmid isolates for each of the subunits were obtained following two rounds of blue-white screening and they were transfected into Sf9 cells cultivated in serum-free medium (Thermo Fisher Scientific). MOI of 10 with a ratio of 75% alpha subunit and 25% beta subunit was selected for expression of glucosidase II. […] Productions and purifications of glucosidase II were carried out at scales ranging from 1-liter to 10-liters. […] In another example, production at the 10-liter scale was performed in stirred-tank bioreactors at 27° C. and 80 rpm with dissolved oxygen level maintained at 50% of oxygen in air and pH maintained between 7.0 and 7.2. For both subunits, the cells were transduced using a total MOI of 10 (75% alpha and 25% beta) and the culture supernatant was harvested at 96 hours post-transduction using centrifugation and filtration through a 0.2 micron filter.
# The supernatant from a 10-liter culture was placed in a stir-jar and 25 mL of Nickel-SEPHAROSE Excel resin (GE) was added. The supernatant was stirred overnight at 25 rpm and 4° C. and the resin was collected into a column (26 mm×60 mm) and washed with 8 CV of 2×DPBS at pH 7.4. The glucosidase II protein was eluted using a linear gradient of 0-60% of 2×DPBS and 500 mM imidazole at pH 7.4. Fractions (10 mL) were collected and analyzed by SDS PAGE and Western Blot (reducing anti-His and anti-Strep). Fractions containing purified glucosidase II were pooled and concentrated for application to a SUPERDEX 200 (26 mm×600 mm) column (GE). The column buffer was PBS pH 7.2 and the concentrated eluate pool was loaded at a rate of 1 mL per minute. Fractions (3 mL) were collected and analyzed using SDS PAGE and Western Blot (reducing anti-His and anti-Strep). Fractions containing purified glucosidase II in PBS pH 7.2 were pooled and concentrated to 1 mg/mL. The final product was filter sterilized and stored at 4° C.
# Alpha-glucosidase II Assay: The assay was performed by incubating recombinant enzyme alpha-glucosidase II for 60 minutes at 37° C. with multiple dilutions of test compounds. 4-methylumbelliferyl-alpha-D-pyranoside was then introduced as the substrate to the mixture. Fluorogenic 1,4-methyllumbelliferone was generated, and the reaction was stopped with the stop solution (0.5 M glycine, 0.3 M NaOH pH 10) after an incubation of 30 minutes at 37° C. […] Percent inhibition was then plotted as a function of concentration for each test compound.
SMILES,IC50 (rat maltase) [µM],IC50 [1] [µM]
"[N-]=[N+]=Nc1ccc(NCCCCCCN[C@H]2C[C@](O)(CO)[C@@H](O)[C@H](O)[C@H]2O)c([N+](=O)[O-])c1 [Compound 2, (1S,2S,3R,4S,5S)-5-((6-((4-azido-2-nitrophenyl)amino)hexyl)amino)-1-(hydroxymethyl)cyclohexane-1,2,3,4-tetraol]",0.00165,0.0337
"COCCCCCCCCCN[C@H]1C[C@](O)(CO)[C@@H](O)[C@H](O)[C@H]1O [Compound 3, (1S,2S,3R,4S,5S)-1-(hydroxymethyl)-5-((9-methoxynonyl)amino)cyclohexane-1,2,3,4-tetraol]",0.102,0.49
"O=[N+]([O-])c1cc(-n2cnnn2)ccc1NCCCCCCN[C@H]1C[C@](O)(CO)[C@@H](O)[C@H](O)[C@H]1O [Compound 4, (1S,2S,3R,4S,5S)-1-(hydroxymethyl)-5-((6-((2-nitro-4-(1H-tetrazol-1-yl)phenyl)amino)hexyl)amino)cyclohexane-1,2,3,4-tetraol]",0.512,1.42
"O=[N+]([O-])c1cc(-n2nccn2)ccc1NCCCCCCN[C@H]1C[C@](O)(CO)[C@@H](O)[C@H](O)[C@H]1O [Compound 5, (1S,2S,3R,4S,5S)-1-(hydroxymethyl)-5-((6-((2-nitro-4-(2H-1,2,3-triazol-2-yl)phenyl)amino)hexyl)amino)cyclohexane-1,2,3,4-tetraol]",< 0.0333,< 0.001
"O=[N+]([O-])c1cc(-n2ccnn2)ccc1NCCCCCCN[C@H]1C[C@](O)(CO)[C@@H](O)[C@H](O)[C@H]1O [Compound 6, (1S,2S,3R,4S,5S)-1-(hydroxymethyl)-5-((6-((2-nitro-4-(1H-1,2,3-triazol-1-yl)phenyl)amino)hexyl)amino)cyclohexane-1,2,3,4-tetraol]",< 0.0333,0.0155
"O=[N+]([O-])c1cc(-c2ncccn2)ccc1NCCCCCCN[C@H]1C[C@](O)(CO)[C@@H](O)[C@H](O)[C@H]1O [Compound 7, (1S,2S,3R,4S,5S)-1-(hydroxymethyl)-5-((6-((2-nitro-4-(pyrimidin-2-yl)phenyl)amino)hexyl)amino)cyclohexane-1,2,3,4-tetraol]",0.00814,0.0011
"[N-]=[N+]=Nc1ccc(NCCCCN[C@H]2C[C@](O)(CO)[C@@H](O)[C@H](O)[C@H]2O)c([N+](=O)[O-])c1 [Compound 8, (1S,2S,3R,4S,5S)-5-((4-((4-azido-2-nitrophenyl)amino)butyl)amino)-1-(hydroxymethyl)cyclohexane-1,2,3,4-tetraol]",0.0053,1.01
"[N-]=[N+]=Nc1ccc(NCCCCCN[C@H]2C[C@](O)(CO)[C@@H](O)[C@H](O)[C@H]2O)c([N+](=O)[O-])c1 [Compound 9, (1S,2S,3R,4S,5S)-5-((5-((4-azido-2-nitrophenyl)amino)pentyl)amino)-1-(hydroxymethyl)cyclohexane-1,2,3,4-tetraol]",0.00486,0.027
"[N-]=[N+]=Nc1ccc(NCCOCCN[C@H]2C[C@](O)(CO)[C@@H](O)[C@H](O)[C@H]2O)c([N+](=O)[O-])c1 [Compound 10, (1S,2S,3R,4S,5S)-5-((2-(2-((4-azido-2-nitrophenyl)amino)ethoxy)ethyl)amino)-1-(hydroxymethyl)cyclohexane-1,2,3,4-tetraol]",0.0261,37
"O=C(O)CCCCN[C@H]1C[C@](O)(CO)[C@@H](O)[C@H](O)[C@H]1O [Compound 11, 5-(((1S,2S,3R,4S,5S)-2,3,4,5-tetrahydroxy-5-(hydroxymethyl)cyclohexyl)amino)pentanoic acid]",7.58,> 100
N[C@H]1C[C@](O)(CO)[C@@H](O)[C@H](O)[C@H]1O [Valiolamine],1.3,> 100
